Laboratory results from ChEMBL document CHEMBL1201862, “PubChem BioAssay data set” (2004).
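96-well plates; 48 h exposure; 5 concentrations. Endpoints by linear interpolation between flanking doses. Not reached: highest tested concentration assigned. GI50 marks 50% less growth.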 Active and inactive are the calls of the source. Rule as the data show it: active = GI50 up to about 1.1 µM and inactive = higher.

Key:
Assay in all cases: growth of human tumour cells (NCI), 48 h
[1] = tested on: 786-0
[2] = tested on: A498
[3] = tested on: A549
[4] = tested on: ACHN
[5] = tested on: BT-549
[6] = tested on: CAKI-1
[7] = tested on: CCRF-CEM
[8] = tested on: COLO 205
[9] = tested on: DU-145
[10] = tested on: EKVX
[11] = tested on: HCT-116
[12] = tested on: HCT-15
[13] = tested on: HL-60
[14] = tested on: HOP-62
[15] = tested on: HOP-92
[16] = tested on: HT-29
[17] = tested on: IGROV-1
[18] = tested on: K562
[19] = tested on: KM12
[20] = tested on: LOX IMVI
[21] = tested on: M14
[22] = tested on: MCF7
[23] = tested on: MDA-MB-231
[24] = tested on: MDA-MB-435
[25] = tested on: MDA-N
[26] = tested on: MOLT-4
[27] = tested on: NCI-H226
[28] = tested on: NCI-H23
[29] = tested on: NCI-H460
[30] = tested on: NCI-H522
[31] = tested on: NCI/ADR-RES
[32] = tested on: OVCAR-3
[33] = tested on: OVCAR-4
[34] = tested on: OVCAR-5
[35] = tested on: OVCAR-8
[36] = tested on: PC-3
[37] = tested on: RPMI-8226
[38] = tested on: RXF 393
[39] = tested on: SF-268
[40] = tested on: SF-295
[41] = tested on: SF-539
[42] = tested on: SK-MEL-28
[43] = tested on: SK-MEL-5
[44] = tested on: SK-OV-3
[45] = tested on: SN12C
[46] = tested on: SNB-19
[47] = tested on: SNB-75
[48] = tested on: SR
[49] = tested on: SW-620
[50] = tested on: T47D
[51] = tested on: TK-10
[52] = tested on: U-251
[53] = tested on: UACC-257
[54] = tested on: UACC-62
[55] = tested on: UO-31
[56] = tested on: Hs-578T
[57] = tested on: HCC 2998
[58] = tested on: Malme-3M
[59] = tested on: SK-MEL-2

SMILES: O=C(O)CC1OCC=C2CN3CCC45c6ccccc6NC4C1C2CC35 (stereo unspecified)
- GI50 [1]: > 100 µM (inactive)
- GI50 [2]: > 100 µM (inactive)
- GI50 [3]: > 100 µM (inactive)
- GI50 [4]: > 100 µM (inactive)
- GI50 [5]: > 100 µM (inactive)
- GI50 [6]: > 100 µM (inactive)
- GI50 [7]: > 100 µM (inactive)
- GI50 [8]: > 100 µM (inactive)
- GI50 [9]: > 100 µM (inactive)
- GI50 [10]: > 100 µM (inactive)
- GI50 [11]: > 100 µM (inactive)
- GI50 [12]: > 100 µM
- GI50 [13]: > 100 µM (inactive)
- GI50 [14]: > 100 µM (inactive)
- GI50 [15]: > 100 µM (inactive)
- GI50 [16]: > 100 µM (inactive)
- GI50 [17]: > 100 µM (inactive)
- GI50 [18]: > 100 µM (inactive)
- GI50 [19]: > 100 µM (inactive)
- GI50 [20]: > 100 µM (inactive)
- GI50 [21]: > 100 µM (inactive)
- GI50 [22]: > 100 µM (inactive)
- GI50 [23]: > 100 µM (inactive)
- GI50 [24]: > 100 µM (inactive)
- GI50 [25]: > 100 µM (inactive)
- GI50 [26]: > 100 µM (inactive)
- GI50 [27]: > 100 µM (inactive)
- GI50 [28]: > 100 µM (inactive)
- GI50 [29]: > 100 µM (inactive)
- GI50 [30]: > 100 µM (inactive)
- GI50 [31]: > 100 µM (inactive)
- GI50 [32]: > 100 µM (inactive)
- GI50 [33]: > 100 µM (inactive)
- GI50 [34]: > 100 µM (inactive)
- GI50 [35]: > 100 µM (inactive)
- GI50 [36]: > 100 µM (inactive)
- GI50 [37]: > 100 µM (inactive)
- GI50 [38]: > 100 µM (inactive)
- GI50 [39]: > 100 µM (inactive)
- GI50 [40]: > 100 µM (inactive)
- GI50 [41]: > 100 µM (inactive)
- GI50 [42]: > 100 µM (inactive)
- GI50 [43]: > 100 µM (inactive)
- GI50 [44]: > 100 µM (inactive)
- GI50 [45]: > 100 µM (inactive)
- GI50 [46]: > 100 µM (inactive)
- GI50 [47]: 77.1 µM (inactive)
- GI50 [48]: > 100 µM (inactive)
- GI50 [49]: > 100 µM (inactive)
- GI50 [50]: > 100 µM (inactive)
- GI50 [51]: > 100 µM (inactive)
- GI50 [52]: > 100 µM (inactive)
- GI50 [53]: > 100 µM (inactive)
- GI50 [54]: > 100 µM (inactive)
- GI50 [55]: > 100 µM (inactive)

SMILES: CC(=O)OCC(OC(C)=O)C(OC(C)=O)C(/C=N/N(C(C)=O)S(=O)(=O)c1ccc(/C=C2\NC(=O)NC2=O)cc1)OC(C)=O (stereo unspecified)
- GI50 [1]: > 100 µM (inactive)
- GI50 [2]: > 100 µM (inactive)
- GI50 [3]: > 100 µM (inactive)
- GI50 [4]: > 100 µM (inactive)
- GI50 [7]: 50.6 µM (inactive)
- GI50 [8]: > 100 µM (inactive)
- GI50 [9]: > 100 µM (inactive)
- GI50 [10]: > 100 µM (inactive)
- GI50 [11]: > 100 µM (inactive)
- GI50 [12]: > 100 µM
- GI50 [56]: > 100 µM (inactive)
- GI50 [17]: > 100 µM (inactive)
- GI50 [21]: > 100 µM (inactive)
- GI50 [23]: > 100 µM (inactive)
- GI50 [24]: > 100 µM (inactive)
- GI50 [25]: > 100 µM (inactive)
- GI50 [26]: > 100 µM (inactive)
- GI50 [28]: > 100 µM (inactive)
- GI50 [29]: > 100 µM (inactive)
- GI50 [31]: > 100 µM (inactive)
- GI50 [32]: > 100 µM (inactive)
- GI50 [33]: > 100 µM (inactive)
- GI50 [34]: > 100 µM (inactive)
- GI50 [36]: > 100 µM (inactive)
- GI50 [39]: > 100 µM (inactive)
- GI50 [43]: > 100 µM (inactive)
- GI50 [44]: > 100 µM (inactive)
- GI50 [46]: > 100 µM (inactive)
- GI50 [48]: > 100 µM (inactive)
- GI50 [49]: > 100 µM (inactive)
- GI50 [50]: > 100 µM (inactive)
- GI50 [51]: > 100 µM (inactive)
- GI50 [52]: > 100 µM (inactive)
- GI50 [53]: > 100 µM (inactive)
- GI50 [54]: > 100 µM (inactive)
- GI50 [55]: > 100 µM (inactive)

SMILES: O=C(O)CCCc1ccc2c(c1)CC1(C2)Cc2cc3c(cc2C1)CCCC3
- GI50 [1]: 28.6 µM (inactive)
- GI50 [2]: 17.1 µM (inactive)
- GI50 [3]: 6.43 µM (inactive)
- GI50 [4]: 17 µM (inactive)
- GI50 [7]: 11.6 µM (inactive)
- GI50 [8]: 19.9 µM (inactive)
- GI50 [10]: > 100 µM (inactive)
- GI50 [57]: 19.8 µM (inactive)
- GI50 [11]: 2.56 µM (inactive)
- GI50 [12]: 8.3 µM
- GI50 [13]: 11.6 µM (inactive)
- GI50 [14]: 1.98 µM (inactive)
- GI50 [15]: 23.7 µM (inactive)
- GI50 [16]: 16.3 µM (inactive)
- GI50 [56]: > 100 µM (inactive)
- GI50 [17]: 20 µM (inactive)
- GI50 [18]: 11.2 µM (inactive)
- GI50 [19]: 19 µM (inactive)
- GI50 [20]: 17.7 µM (inactive)
- GI50 [21]: 15.2 µM (inactive)
- GI50 [22]: 39.4 µM (inactive)
- GI50 [23]: 3.24 µM (inactive)
- GI50 [24]: 17.3 µM (inactive)
- GI50 [25]: 19.1 µM (inactive)
- GI50 [26]: 1.52 µM (inactive)
- GI50 [58]: 22 µM (inactive)
- GI50 [27]: 31.6 µM (inactive)
- GI50 [28]: 23.6 µM (inactive)
- GI50 [30]: 19.2 µM (inactive)
- GI50 [31]: 31.8 µM (inactive)
- GI50 [32]: 19.3 µM (inactive)
- GI50 [33]: 19.5 µM (inactive)
- GI50 [34]: 19.9 µM (inactive)
- GI50 [35]: 16.5 µM (inactive)
- GI50 [36]: 24.6 µM (inactive)
- GI50 [37]: 28 µM (inactive)
- GI50 [38]: 13.2 µM (inactive)
- GI50 [40]: 23.9 µM (inactive)
- GI50 [41]: 2.06 µM (inactive)
- GI50 [59]: 17.5 µM (inactive)
- GI50 [43]: 13.8 µM (inactive)
- GI50 [44]: 24.7 µM (inactive)
- GI50 [45]: 22.1 µM (inactive)
- GI50 [48]: 18.4 µM (inactive)
- GI50 [50]: 35.6 µM (inactive)
- GI50 [51]: 42.7 µM (inactive)
- GI50 [52]: 16.7 µM (inactive)
- GI50 [53]: 37.7 µM (inactive)
- GI50 [54]: > 100 µM (inactive)
- GI50 [55]: 19.4 µM (inactive)
